Assays:
E. coli = assay: Combination therapy: Fradiomycin with PDEA, visible growth; format: cell-based; conditions: no PDEA
Procedure: (§1) Different concentrations of Fradiomycin in Mueller Hinton were prepared in 3 different concentrations of PDEA. E. coli and S. aureus were inoculated (10^5) and were incubated overnight. Readouts were “Clear” and “Foggy”.

S. aureus = assay: as above; format: cell-based; conditions: no PDEA
Procedure: as §1

Question: For `NC[C@@H]1O[C@H](O[C@H]2[C@@H](O)[C@H](O[C@@H]3[C@@H](O)[C@H](N)C[C@H](N)[C@H]3O[C@H]3O[C@H](CN)[C@@H](O)[C@H](O)[C@H]3N)O[C@@H]2CO)[C@H](N)[C@@H](O)[C@@H]1O` [Fradiomycin], which visible growth readout (E. coli; Fradiomycin 0.0156 μg/ml) is on record?
Answer: The visible growth readout was “Foggy”.

Question: What about the visible growth readout (E. coli; Fradiomycin 0.03125 μg/ml) of the same compound?
Answer: The visible growth readout was “Foggy”.

Question: What about the visible growth readout (E. coli; Fradiomycin 0.0625 μg/ml) of the same compound?
Answer: The visible growth readout was “Foggy”.

Question: And the visible growth readout (E. coli; Fradiomycin 0.125 μg/ml)?
Answer: The visible growth readout was “Foggy”.

Question: What about the visible growth readout (E. coli; Fradiomycin 0.25 μg/ml) of the same compound?
Answer: Its visible growth readout is “Foggy”.

Question: What about the visible growth readout (E. coli; Fradiomycin 0.5 μg/ml) of the same compound?
Answer: The visible growth readout was “Foggy”.

Question: What about the visible growth readout (E. coli; Fradiomycin 2 μg/ml) of the same compound?
Answer: Its visible growth readout is “Clear”.

Question: What about the visible growth readout (E. coli; Fradiomycin 4 μg/ml) of the same compound?
Answer: The visible growth readout was “Clear”.

Question: What about the visible growth readout (E. coli; Fradiomycin 8 μg/ml) of the same compound?
Answer: Its visible growth readout is “Clear”.

Question: What about the visible growth readout (E. coli; Fradiomycin 16 μg/ml) of the same compound?
Answer: The visible growth readout was “Clear”.

Question: What about the visible growth readout (E. coli; Fradiomycin 32 μg/ml) of the same compound?
Answer: Its visible growth readout is “Clear”.

Question: What about the visible growth readout (E. coli; Fradiomycin 64 μg/ml) of the same compound?
Answer: Its visible growth readout is “Clear”.

Question: What about the visible growth readout (E. coli; Fradiomycin 128 μg/ml) of the same compound?
Answer: Its visible growth readout is “Clear”.

Question: And the visible growth readout (E. coli; Fradiomycin 256 μg/ml)?
Answer: The visible growth readout was “Clear”.

Question: And the visible growth readout (S. aureus; Fradiomycin 0.0156 μg/ml)?
Answer: Its visible growth readout is “Foggy”.

Question: What about the visible growth readout (S. aureus; Fradiomycin 0.03125 μg/ml) of the same compound?
Answer: The visible growth readout was “Foggy”.

Question: And the visible growth readout (S. aureus; Fradiomycin 0.0625 μg/ml)?
Answer: The visible growth readout was “Foggy”.

Question: And the visible growth readout (S. aureus; Fradiomycin 0.125 μg/ml)?
Answer: Its visible growth readout is “Foggy”.

Question: And the visible growth readout (S. aureus; Fradiomycin 0.25 μg/ml)?
Answer: The visible growth readout was “Foggy”.

Question: And the visible growth readout (S. aureus; Fradiomycin 0.5 μg/ml)?
Answer: The visible growth readout was “Foggy”.

Question: And the visible growth readout (S. aureus; Fradiomycin 1 μg/ml)?
Answer: Its visible growth readout is “Clear”.

Question: What about the visible growth readout (S. aureus; Fradiomycin 2 μg/ml) of the same compound?
Answer: The visible growth readout was “Clear”.

Question: And the visible growth readout (S. aureus; Fradiomycin 4 μg/ml)?
Answer: Its visible growth readout is “Clear”.

Question: And the visible growth readout (S. aureus; Fradiomycin 8 μg/ml)?
Answer: The visible growth readout was “Clear”.

Question: And the visible growth readout (S. aureus; Fradiomycin 16 μg/ml)?
Answer: Its visible growth readout is “Clear”.

Question: What about the visible growth readout (S. aureus; Fradiomycin 32 μg/ml) of the same compound?
Answer: The visible growth readout was “Clear”.

Question: And the visible growth readout (S. aureus; Fradiomycin 64 μg/ml)?
Answer: The visible growth readout was “Clear”.

Question: What about the visible growth readout (S. aureus; Fradiomycin 128 μg/ml) of the same compound?
Answer: Its visible growth readout is “Clear”.

Question: What about the visible growth readout (S. aureus; Fradiomycin 256 μg/ml) of the same compound?
Answer: Its visible growth readout is “Clear”.

From patent US20250339415A1, “DISULFIDE COMPOUNDS AS MEDICAMENTS” (CYTACOAT AB, priority 2021, published 2025)
